Measured values from patent publication US20240238254A1, “PHARMACOLOGICAL INTERVENTION OF THE ARACHIDONIC ACID PATHWAY TO CURE AMYOTROPHIC LATERAL SCLEROSIS” (The Johns Hopkins University, priority 2021, published 2024).

How the values were obtained:
[1] = test system: differentiating HB9::GFP C9ORF72 and SOD1^A4V ALS lines; format: cell-based, human; details: CA added to AA-treated sMN culture; dose dependent
Protocol: (§1) Cells were dissociated using Accutase after incubation for 20 min at 37° C. and suspended with buffer containing 40 μg/ml DNase I (Roche Applied Science). For GFP analysis, BD FACS Calibur (Becton Dickinson) and FlowJo software (Tree Star Inc.) were used. To purify GFP^+ populations for each reporter line, a MoFlo high-speed sorter (Dako Cytomation) in the Johns Hopkins School of Public Health Flow Cytometry Core Facility and a BD FACSJazz sorter in the Stem Cell Core Facility of Johns Hopkins Medicine (Institute for Cell Engineering) were used.
For Immunohistochemistry, E12.5 midbrain was dissected and fixed with 4% paraformaldehyde (PFA) overnight. After fixation, tissues were washed with PBS and incubated with 30% sucrose for cryosection as described previously^97. The following antibodies were used as a primary antibody: rabbit anti-TH (Pel-Freez Biologicals), mouse anti-Isl1 (DSHB) and rabbit anti-Phox2b (gift from Jean-Francois Brunet)^98. For Isl1 staining, a mouse on mouse kit (Vector Laboratory) was used. For immunocytochemistry, cells were fixed with 4% PFA and stained with mouse anti-ISL1 (DSHB), mouse anti-NKX6.1 (DSHB), rabbit anti-TUJ1 (BioLegend) and rabbit anti-PHOX2B (gift from Jean-Francois Brunet). For FACS analysis, cells were fixed with 4% PFA and stained with mouse anti-HB9 (DSHB) and mouse anti-ISL1 (DSHB) as described previously^99. For 7AAD analysis by FACS, staining was conducted based on commercial instruction (BD #559925). Appropriate Alexa Fluor 488, 568 and 647 (Life Technologies) labeled secondary antibodies were used with DAPI (Roche Applied Science) for nuclear staining. All images were visualized with fluorescence microscopy (Eclipse TE2000-E, Nikon).
SMN differentiation was performed as previously described^67. For general sMN culture media, neurobasal medium (Gibco) containing B27 (Gibco), N2 (Gibco), and 2 mM L-glutamine was used as a normal medium. For compound testing, neurobasal medium with N2 was used as a conditioned medium using caffeic acid (Sigma, C0625), R-Deprenyl hydrochloride (Sigma, M003), Ajamaline (MP Biomedicals, 4360-12-7), Creatine (Sigma, 1150320) and ISP-1 (Sigma, M1177), BW755C (Tocris, 105910), Nordihydroguaiaretic acid (Sigma, 74540), Apigenin (Fisher Scientific, 50908414), U-73122 (Thermo, 126810). For Arachidonic acid testing, Arachidonic acid (Cayman, 506-32-1) was treated in normal media. For mitomycin C treatment, 1 μg/ml of mitomycin C was treated in differentiating oMN or sMN cells for 1 hr at D17 and analyzed after 2 days (D19) by FACS. For fold change value, non-treated % of GFP^+ were considered as a control and fold change values were normalized upon % of GFP expression of non-treated cells by FACS. […]

[2] = test system: HB9::GFP+ cells of SOD1^A4V ALS hiPSC line (sMN differentiation); test: Motor neuron compound screening: HB9::GFP+ sMN survival by FACS, SOD1A4V line; format: cell-based, human
Protocol: as §1
SMN differentiation was performed as previously described^67. For general sMN culture media, neurobasal medium (Gibco) containing B27 (Gibco), N2 (Gibco), and 2 mM L-glutamine was used as a normal medium. For compound testing, neurobasal medium with N2 was used as a conditioned medium using caffeic acid (Sigma, C0625), R-Deprenyl hydrochloride (Sigma, M003), Ajamaline (MP Biomedicals, 4360-12-7), Creatine (Sigma, 1150320) and ISP-1 (Sigma, M1177), BW755C (Tocris, 105910), Nordihydroguaiaretic acid (Sigma, 74540), Apigenin (Fisher Scientific, 50908414), U-73122 (Thermo, 126810). For Arachidonic acid testing, Arachidonic acid (Cayman, 506-32-1) was treated in normal media. For mitomycin C treatment, 1 μg/ml of mitomycin C was treated in differentiating oMN or sMN cells for 1 hr at D17 and analyzed after 2 days (D19) by FACS. For fold change value, non-treated % of GFP^+ were considered as a control and fold change values were normalized upon % of GFP expression of non-treated cells by FACS. […]

[3] = test system: C9ORF72 (G4C2)30 Drosophila model; test: Fly survival experiment (progeny efficiency and survival rate); format: in vivo; details: compound feeding; n=5 for each group
Protocol: Flies were maintained on a cornmeal-molasses-yeast medium at room temperature (22° C.) with 60-65% humidity. The following Drosophila lines were obtained from the Bloomington Stock Center: elav-GAL4, GMR-GAL4, and OK371-GAL4. The UAS-([…])3 and UAS-([…])30 lines were obtained from Dr. Peng Jin's laboratory^81. UAS-([…])30 flies recombined with OK371-Gal4 were selected as male parental flies for crossing (♀w^1118×♂OK371-Gal4: UAS-([…])30/TM6B, GAL80). Overexpressing 30 HRE in fly motor neurons using OK371-Gal4 causes lethality due to paralysis, preventing eclosion of the adult from the pupal case. According to Mendelian inheritance, the theoretical ratio of progenies with 30 HRE expressions from the above crossing is 50%. A total of 100 adult flies were collected in each group. Survival rate was calculated as the ratio of the flies with 30 HRE that survive to adulthood to total adult flies and then divided by theoretical ratio 50%.

Which results are given for `O=C(O)/C=C/c1ccc(O)c(O)c1` [caffeic acid, 3,4-dihydroxy benenearcrylic acid]?
AA-induced decrease of percentages of HB9::GFP+ cells [1]: significantly reversed; AA-induced increase of percentages of 7AAD+ cells [1]: significantly reversed; levels of HB9::GFP+ cells ([2]; SOD1^A4V ALS line, treatment D11-D23 of sMN differentiation, conditioned medium, FACS, vs vehicle): sufficiently rescue; levels of HB9::GFP expression after mitomycin C treatment ([2]; SOD1^A4V sMN culture, mitomycin C 1 μg/ml, 1 hr): elevates; progeny rate [3]: significant dose-dependent recovery; survival rate [3]: significant dose-dependent recovery
